Reference: PMC11811597, “Phenomics‐Based Discovery of Novel Orthosteric Choline Kinase Inhibitors” (Angewandte Chemie (International Ed. in English), 2025)

Key:
Type in all cases: binding, human
[1] = system: ZNF644; test: Competitive affinity-based chemoproteomics (UNC0965 matrix), MCF7 lysate; details: 20 μM competitor, n=2
Method: A-366 and UNC0638 were purchased from Tocris. ARIAD and V-11-07-11 were purchased from Wuxi Apptec. UNC0737 and UNC0965 were synthesised as previously described.[1] Hemicholinium-3 and pyruvate kinase/lactic dehydrogenase enzymes were purchased from Sigma Aldrich. Aqueous and organic solvents were MS-grade and acquired by Sigma Aldrich unless stated otherwise.
MDA-MB-231, MCF7 and HEK293 cells were cultured in DMEM (Gibco, #11965092) supplemented with 10% FBS. K562 were cultured in IMDM (Gibco, #12440053) supplemented with 10% FBS. HepG2 were cultured in MEM (Gibco, #11095080) supplemented with 10 % FBS. […]
cultured in McCoy’s 5A (Sigma, M8403) supplemented with 10 % FBS and 1x GlutaMAX (Gibco, #35050061). Cells were maintained at 37 °C in a humidified 5% CO2 atmosphere. Peripheral blood mononuclear cells (PBMC) were isolated from healthy blood donors by density centrifugation. […]
Cell Titer-Glo® reagent was added to each well and total luminescence readings were performed within 15 min using the PHERAstar FSX (BMG Labtech). […]
Digested samples were analysed by nano-UPLC–MS/MS using a Dionex Ultimate 3000 nano UPLC fitted with an EASY spray column (75 μm × 500 mm, 2 μm particle size, Thermo Scientific), coupled to an Orbitrap Q Exactive instrument. […]

[2] = system: PRCP; test: Competitive affinity-based chemoproteomics (UNC0965 matrix), PBMC cell extract; details: 20 µM competitor, n=2
Method: (§1) described.[2] Lysates were precleared with bead slurry (100 μL) for 30 min at 4 °C and then treated with UNC0638 or UNC0737 (20 μM) or DMSO control for 30 min at 4 °C followed by incubation with affinity matrix for 2 h at 4 °C. Affinity matrices were washed with buffer A (5 mL) and proteins eluted with 100 μL of 2x Laemmli sample buffer, 100 mM DTT, in PBS and heating for 10 min at 90 °C.
(§2) Eluents (70 µL) were diluted in 0.1 M Tris (pH 7.8) to 200 µL, reduced with 5 mM DTT for 30 min at RT, and alkylated with 20 mM iodoacetamide for 30 min at RT in the dark. Proteins were precipitated by sequential addition of MeOH (600 µL), CHCl3 (150 µL) and H2O (450 µL), pelleted (17,000 × g, 5 min), washed with further MeOH (2 × 600 µL), and re-pelleted. Air dried pellets were resuspended in 50 μL 6 M urea (pH 7.8) by vortexing and then diluted with 250 μL H2O before adding 1 µg trypsin for overnight incubation at 37 °C. The digests were acidified with FA (1% v/v final concentration), desalted using SOLA HRP SPE Cartridges (Thermo Fisher), eluted with 69% v/v MeCN, 0.1% v/v FA in H2O (600 μL) and dried in vacuo. Dried peptides were stored at -20 °C before resuspension in 2% v/v MeCN, 0.1% v/v FA in H2O (20 μL) for LC-MS/MS analysis.
(§3) LC-MS/MS Data Acquisition
(§4) Digested samples were analysed by nano-UPLC–MS/MS using a Dionex Ultimate 3000 nano UPLC fitted with an EASY spray column (75 μm × 500 mm, 2 μm particle size, Thermo Scientific), coupled to an Orbitrap Q Exactive instrument. A 60 min gradient of 0.1% (v/v) formic acid in 5 % (v/v) DMSO to 0.1% (v/v) formic acid with 35% (v/v) acetonitrile in 5 % (v/v) DMSO at a flow rate of 250 nL min−1 was used. The instrument was operated in a data-dependant mode, with survey scans acquired at a resolution of 70,000 at 200 m/z and the 15 most abundant precursors selected for HCD fragmentation with an AGC target of […] ions.
(§5) Raw data was processed using MaxQuant[3] version 2.0.1.0 and the reference complete human proteome FASTA file (UniProt, downloaded 05.08.21). Label Free Quantification (LFQ) and Match Between Runs were selected; Cysteine carbamidomethylation was selected as a fixed modification, and methionine oxidation and asparagine deamidation as variable modifications. Default settings for identification and quantification were used. Specifically, a minimum peptide length of 7, a maximum of 2 missed cleavage sites, and a maximum of 5 labelled amino acids per peptide were allowed.
(§6) Through selection of the ‘trypsin/P’ general setting, peptide bond cleavage at arginine or lysine (followed by any amino acid) was considered during in silico digest of the reference proteome. […]
(§7) mode selected for both identification and quantification of proteins (razor peptides are uniquely assigned to protein groups and not to individual proteins).

[3] = system: PWP1; test: as above; details: 20 µM competitor, n=2
Method: as §1, §2, §3, §4, §5, §6, §7

SMILES	FC vs DMSO (log2 competition), ZNF644 [1]	FC vs DMSO (log2 competition), PRCP [2]	FC vs DMSO (log2 competition), PWP1 [3]
COc1cc2c(NC3CCN(C(C)C)CC3)nc(C3CCCCC3)nc2cc1OCCCN1CCCC1 [UNC0638]	-2.1553	-3.268	-2.002
COc1cc2c(N(C)C3CCN(C(C)C)CC3)nc(C3CCCCC3)nc2cc1OCCCN1CCCC1 [UNC0737]	0.3825	-0.4338	-0.1275
